Measured values as given in patent publication US4048202A (priority 1975, dated 1977).
In brackets after ≈: the same amount, converted by molar mass. Read-outs that look alike come from different tables or passages of the source.

Assays:
Assay in all cases: microbe, parasite or virus in culture
[1] = system: C.perfingens (ATCC 1620-19); type: cell-based, Clostridium perfingens; settings: Clostridium, read-out: Minimum Inhibitory Concentrations
[2] = system: C. paraputrificum (ATCC 1620-23); type: cell-based; settings: Clostridium paraputrificum, read-out: Minimum Inhibitory Concentrations
[3] = system: B.subtilis; type: cell-based; settings: Bacillus subtilis, read-out: Minimum Inhibitory Concentrations
[4] = system: C.botulinum (ATCC 19397); type: cell-based; settings: Clostridium botulinum
[5] = system: C.perfingens (ATCC 13124); type: cell-based, Clostridium perfingens; settings: Clostridium, read-out: Minimum Inhibitory Concentrations
[6] = ATCC19397, pH 5, read-out: Minimum Inhibitory Concentrations
[7] = ATCC19397, pH 7, read-out: Minimum Inhibitory Concentrations

SMILES	MIC ([1]; ATCC1620, pH 5) [mg/L]	MIC ([1]; ATCC1620, pH 7) [mg/L]	MIC ([2]; ATCC1620, pH 5) [mg/L]	MIC ([2]; ATCC1620, pH 7) [mg/L]	MIC ([3]; pH 5) [mg/L]	MIC ([3]; pH 7) [mg/L]	MIC [4, 6] [mg/L]	MIC [4, 7] [mg/L]	MIC ([5]; ATCC13124, pH 5) [mg/L]	MIC ([5]; ATCC13124, pH 7) [mg/L]
CCCCCCCCCC(=O)OCC(O)C(=O)O (stereo not shown) [R=9, 3-O-decanoylglyceric acid]	10 (≈ 38.4 µM)	100 (≈ 384 µM)	10 (≈ 38.4 µM)	100 (≈ 384 µM)	10 (≈ 38.4 µM)	1000 (≈ 3840 µM)	10 (≈ 38.4 µM)	10 (≈ 38.4 µM)	10 (≈ 38.4 µM)	10 (≈ 38.4 µM)
CCCCCC(=O)OCC(O)C(=O)O (stereo not shown) [R=5, 3-O-hexanoylglyceric acid]	10 (≈ 49 µM)	1000 (≈ 4900 µM)	10 (≈ 49 µM)	1000 (≈ 4900 µM)	10 (≈ 49 µM)	10000 (≈ 49000 µM)	10 (≈ 49 µM)	100 (≈ 490 µM)	100 (≈ 490 µM)	1000 (≈ 4900 µM)
CCCCCCCCCCCCCCCC(=O)OCC(O)C(=O)O (stereo not shown) [R=15, 3-O-hexadecanoylglyceric acid]	100 (≈ 290 µM)	100 (≈ 290 µM)	10 (≈ 29 µM)	1000 (≈ 2900 µM)	> 10000	10000 (≈ 29000 µM)	100 (≈ 290 µM)	1000 (≈ 2900 µM)	10 (≈ 29 µM)	1000 (≈ 2900 µM)
CCCCCCCCCCCCC(=O)OCC(O)C(=O)O (stereo not shown) [R=12, 3-O-tridecanoylglyceric acid]	10 (≈ 33.1 µM)	10 (≈ 33.1 µM)	10 (≈ 33.1 µM)	100 (≈ 331 µM)	10 (≈ 33.1 µM)	1000 (≈ 3310 µM)	10 (≈ 33.1 µM)	100 (≈ 331 µM)	10 (≈ 33.1 µM)	100 (≈ 331 µM)
